Data as given in patent US7968534B2, “Sulfonamide derivatives, preparation thereof and use thereof as antagonists of orexin 2 receptors” (Sanofi-Aventis, priority 2006, dated 2011).
Counter-ions that a name gives are not always drawn. Like-named read-outs stand apart in the source and are kept apart here.

How the values were obtained:
human orexin 2 receptors = biological target: T1, human orexin 2 receptors (Homo sapiens, UniProt O43614); experiment: in vitro binding test: displacement of radioiodinated orexin A, membranes of CHO cells; details: read-out: IC50 OX 2
T1 construct: expressed in transfected cells; host or cells: CHO cells (membranes)
T1 sequence (O43614 1-444): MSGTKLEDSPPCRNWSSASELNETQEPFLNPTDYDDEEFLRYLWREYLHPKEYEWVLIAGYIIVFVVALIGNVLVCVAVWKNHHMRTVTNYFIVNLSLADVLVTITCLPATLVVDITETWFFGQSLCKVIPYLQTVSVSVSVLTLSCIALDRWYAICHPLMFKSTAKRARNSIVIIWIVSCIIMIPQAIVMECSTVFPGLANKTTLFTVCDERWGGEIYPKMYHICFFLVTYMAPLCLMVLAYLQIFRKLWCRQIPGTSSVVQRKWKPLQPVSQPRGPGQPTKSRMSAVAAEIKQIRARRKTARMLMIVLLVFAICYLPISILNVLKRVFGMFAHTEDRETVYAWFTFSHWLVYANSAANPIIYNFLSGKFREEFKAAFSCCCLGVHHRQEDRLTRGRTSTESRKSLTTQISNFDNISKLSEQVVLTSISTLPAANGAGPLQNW
Experimental: (§1) They were in particular tested for their effects. […] This method consists in studying the displacement of radioiodinated orexin A attached to the human orexin 2 receptors expressed in CHO cells. The test is performed on membranes in a 50 mM Hepes incubation buffer containing 1 mM MgCl2, 25 mM CaCl2, 0.025% NaN3, 1% bovine serum albumin (BSA) and 100 pM of ligand for 30 minutes at 25° C. The reaction is stopped by filtration and washing on a Whatman GF/C filter. The nonspecific binding is measured in the presence of 10^−6M human orexin B. The IC50 values (concentration inhibiting 50% of the binding of radioiodinated orexin A to its receptors) are low, less than 300 nM, in particular less than 100 nM and more particularly less than 30 nM.

human orexin 1 receptors = biological target: T2, human orexin 1 receptors (Homo sapiens, UniProt O43613); experiment: in vitro binding test, same technique, radioiodinated orexin A, membrane preparation of CHO cells; details: Table 2, read-out: IC50 OX 1
T2 construct: expressed in transfected cells; host or cells: CHO cells (membrane preparation)
T2 sequence (O43613 1-425): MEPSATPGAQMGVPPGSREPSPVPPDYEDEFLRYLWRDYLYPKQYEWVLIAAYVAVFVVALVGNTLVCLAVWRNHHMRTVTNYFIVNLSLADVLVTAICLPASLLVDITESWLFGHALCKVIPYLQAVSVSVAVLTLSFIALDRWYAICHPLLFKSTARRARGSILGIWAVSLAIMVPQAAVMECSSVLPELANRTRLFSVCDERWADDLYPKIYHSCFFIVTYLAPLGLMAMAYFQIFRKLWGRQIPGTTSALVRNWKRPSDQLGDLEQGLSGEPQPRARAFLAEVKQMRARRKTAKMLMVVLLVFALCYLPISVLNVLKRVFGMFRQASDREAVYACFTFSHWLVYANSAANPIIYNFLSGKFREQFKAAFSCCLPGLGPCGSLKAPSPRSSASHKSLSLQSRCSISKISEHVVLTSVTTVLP
Experimental: as §1
The affinity of the compounds according to the invention for the orexin 1 receptors was also studied in an in vitro binding test according to the same technique using radioiodinated orexin A as ligand in a membrane preparation of CHO cells expressing the human orexin 1 receptors. The compounds according to the invention have little or no affinity for the orexin 1 receptors.

[1] = Table 2, in vitro binding test, 100 pM radioiodinated orexin A, 30 minutes at 25° C.

SMILES	IC50 (human orexin 2 receptors; Table 1, assay not given) [nM]	IC50 (human orexin 2 receptors; [1]) [nM]	IC50 (human orexin 1 receptors) [nM]
COc1ccc(S(=O)(=O)N(c2c(Cc3c(F)cccc3F)cccc2OC)[C@H]2CCNC2)cc1OC (atropisomer, axis not shown) [Compound 6, N-[2-(2,6-difluorobenzyl)-6-methoxyphenyl]-3,4-dimethoxy-N-[(3S)-pyrrolidin-3-yl]benzenesulfonamide hydrochloride]	9.1		
COc1ccc(S(=O)(=O)N(c2c(Cc3ccccc3Cl)cccc2OC)[C@H]2CCNC2)cc1OC [Compound 11, N-[2-(2-chlorobenzyl)-6-methoxyphenyl]-3,4-dimethoxy-N-[(3S)-pyrrolidin-3-yl]benzenesulfonamide hydrochloride]	7.2		
COc1ccc(S(=O)(=O)N(c2c(Cc3c(F)cccc3F)cc(Cl)cc2OC)[C@H]2CCNC2)cc1OC [Compound 18, N-[2-(2,6-difluorobenzyl)-4-chloro-6-methoxyphenyl]-3,4-dimethoxy-N-[(3S)-pyrrolidin-3-yl]benzenesulfonamide hydrochloride]	12		
COc1ccc(S(=O)(=O)N(c2c(Cc3c(F)cccc3F)cccc2OC)[C@H]2CCNC2)cc1OC (atropisomer, axis not shown) [Compound 7, N-[2-(2,6-difluorobenzyl)-6-methoxyphenyl]-3,4-dimethoxy-N-[(3S)-pyrrolidin-3-yl]benzenesulfonamide hydrochloride]		9	103
COc1ccc(S(=O)(=O)N(c2ccc(Cl)cc2Cc2c(F)cccc2F)[C@H]2CCNC2)cc1OC [Compound 1, N-[4-chloro-2-(2,6-difluorobenzyl)phenyl]-3,4-dimethoxy-N-[(3S)-pyrrolidin-3-yl]benzenesulfonamide hydrochloride]		16.4	1380
COc1ccc(S(=O)(=O)N(c2c(Cc3c(F)cccc3F)cccc2OC)[C@H]2CCC[C@@H]2N)cc1OC [Compound 14, N-[(1S,2S)-2-aminocyclopentyl]-N-[2-(2,6-difluorobenzyl)-6-methoxyphenyl]-3,4-dimethoxy-benzenesulfonamide hydrochloride]	10		
